Measurements reported in the supplement of paper PMC10627819.

Key:
Test in all cases: Bliss interaction score (quartile over a dose matrix) (fitness difference); higher = more antagonism (negative = synergy)
S. aureus Newman = test system: S. aureus Newman
How it was run: (§1)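 Each plate was normalised to the robust mean of its own no-drug wells, using OD595 at entry into stationary phase, with values capped at 1. This normalised growth is the fitness value. The Bliss score is the difference between observed and product-expected fitness, with single-drug fitness inferred from the combination data and quartiles taken over technical, biological and donor/recipient replicates.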

B. subtilis 168 = test system: B. subtilis 168
How it was run: as §1

S. aureus DSM 20231 = test system: S. aureus DSM 20231
How it was run: as §1

S. pneumoniae D39V = test system: S. pneumoniae D39V
How it was run: as §1
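Further: first quartile when negative (synergy) and third quartile when positive (antagonism).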

SMILES | Bliss interaction score (S. aureus Newman) | Bliss interaction score (B. subtilis 168) | Bliss interaction score (S. aureus DSM 20231) | Bliss interaction score (S. pneumoniae D39V) | Bliss interaction score (S. aureus Newman; main component drawn) | Bliss interaction score (B. subtilis 168; main component drawn) | Bliss interaction score (S. aureus DSM 20231; main component drawn) | Bliss interaction score (S. pneumoniae D39V; main component drawn)
CC(=O)O[C@H]1C[C@@]2(C)[C@@H](C[C@@H](O)[C@H]3[C@@]4(C)CC[C@@H](O)[C@@H](C)[C@@H]4CC[C@@]32C)/C1=C(\CCC=C(C)C)C(=O)O [Fusidic acid] + CO[C@@H]1[C@@H](OC(N)=O)[C@@H](O)[C@H](Oc2ccc3c(O)c(NC(=O)c4ccc(O)c(CC=C(C)C)c4)c(=O)oc3c2C)OC1(C)C [Novobiocin] | 0.0521 | 0.0723 | 0.0249 | -0.153 | – | – | – | –
CC(=O)O[C@H]1C[C@@]2(C)[C@@H](C[C@@H](O)[C@H]3[C@@]4(C)CC[C@@H](O)[C@@H](C)[C@@H]4CC[C@@]32C)/C1=C(\CCC=C(C)C)C(=O)O [Fusidic acid] + CO[C@@]12[C@H](COC(N)=O)C3=C(C(=O)C(C)=C(N)C3=O)N1C[C@@H]1N[C@@H]12 [MitomycinC] | 0.0159 | 0.0298 | 0.0263 | -0.149 | – | – | – | –
CC(=O)O[C@H]1C[C@@]2(C)[C@@H](C[C@@H](O)[C@H]3[C@@]4(C)CC[C@@H](O)[C@@H](C)[C@@H]4CC[C@@]32C)/C1=C(\CCC=C(C)C)C(=O)O [Fusidic acid] + CO[C@H]1/C=C/O[C@@]2(C)Oc3c(C)c(O)c4c(O)c(c(/C=N/N5CCN(C)CC5)c(O)c4c3C2=O)NC(=O)/C(C)=C\C=C\[C@H](C)[C@H](O)[C@@H](C)[C@@H](O)[C@@H](C)[C@H](OC(C)=O)[C@@H]1C [Rifampicin] | 0.0314 | 0.0723 | 0.0497 | 0.0781 | – | – | – | –
CC(=O)O[C@H]1C[C@@]2(C)[C@@H](C[C@@H](O)[C@H]3[C@@]4(C)CC[C@@H](O)[C@@H](C)[C@@H]4CC[C@@]32C)/C1=C(\CCC=C(C)C)C(=O)O [Fusidic acid] + COc1c(N2C[C@@H]3CCCN[C@@H]3C2)c(F)cc2c(=O)c(C(=O)O)cn(C3CC3)c12 [Moxifloxacin] | 0.0453 | 0.0398 | 0.0361 | 0.048 | – | – | – | –
CC(=O)O[C@H]1C[C@@]2(C)[C@@H](C[C@@H](O)[C@H]3[C@@]4(C)CC[C@@H](O)[C@@H](C)[C@@H]4CC[C@@]32C)/C1=C(\CCC=C(C)C)C(=O)O [Fusidic acid] + COc1cc(Cc2cnc(N)nc2N)cc(OC)c1OC [Trimethoprim] | 0.0427 | 0.112 | 0.0265 | -0.0871 | – | – | – | –
CC(=O)O[C@H]1C[C@@]2(C)[C@@H](C[C@@H](O)[C@H]3[C@@]4(C)CC[C@@H](O)[C@@H](C)[C@@H]4CC[C@@]32C)/C1=C(\CCC=C(C)C)C(=O)O [Fusidic acid] + COc1ccc(C[C@H](N)C(=O)N[C@H]2[C@@H](O)[C@H](n3cnc4c(N(C)C)ncnc43)O[C@@H]2CO)cc1 [Puromycin] | -0.0454 | -0.045 | 0.0336 | -0.213 | – | – | – | –
CC(=O)O[C@H]1C[C@@]2(C)[C@@H](C[C@@H](O)[C@H]3[C@@]4(C)CC[C@@H](O)[C@@H](C)[C@@H]4CC[C@@]32C)/C1=C(\CCC=C(C)C)C(=O)O [Fusidic acid] + C[C@@H](O)[C@H]1C(=O)N2C(C(=O)O)=C(SCCNC=N)C[C@H]12 [Imipenem] | 0.0214 | 0.138 | 0.0208 | 0.0477 | – | – | – | –
CC(=O)O[C@H]1C[C@@]2(C)[C@@H](C[C@@H](O)[C@H]3[C@@]4(C)CC[C@@H](O)[C@@H](C)[C@@H]4CC[C@@]32C)/C1=C(\CCC=C(C)C)C(=O)O [Fusidic acid] + C[C@H]1COc2c(N3CCN(C)CC3)c(F)cc3c(=O)c(C(=O)O)cn1c23 [Levofloxacin] | 0.0554 | 0.034 | 0.0375 | 0.119 | – | – | – | –
CC(=O)O[C@H]1C[C@@]2(C)[C@@H](C[C@@H](O)[C@H]3[C@@]4(C)CC[C@@H](O)[C@@H](C)[C@@H]4CC[C@@]32C)/C1=C(\CCC=C(C)C)C(=O)O [Fusidic acid] + C[n+]1ccc(-c2cc[n+](C)cc2)cc1 [Paraquat] | 0.0284 | 0.0317 | 0.0328 | 0.0439 | – | – | – | –
CC(=O)O[C@H]1C[C@@]2(C)[C@@H](C[C@@H](O)[C@H]3[C@@]4(C)CC[C@@H](O)[C@@H](C)[C@@H]4CC[C@@]32C)/C1=C(\CCC=C(C)C)C(=O)O [Fusidic acid] + Cc1cc(NS(=O)(=O)c2ccc(N)cc2)no1 [Sulfamethoxazol] | -0.026 | 0.0933 | -0.0234 | 0.0975 | – | – | – | –
CC(=O)O[C@H]1C[C@@]2(C)[C@@H](C[C@@H](O)[C@H]3[C@@]4(C)CC[C@@H](O)[C@@H](C)[C@@H]4CC[C@@]32C)/C1=C(\CCC=C(C)C)C(=O)O [Fusidic acid] + Cc1ncc([N+](=O)[O-])n1CCO [Metronidazole] | -0.0202 | 0.0703 | -0.0408 | 0.133 | – | – | – | –
CC(=O)O[C@H]1C[C@@]2(C)[C@@H](C[C@@H](O)[C@H]3[C@@]4(C)CC[C@@H](O)[C@@H](C)[C@@H]4CC[C@@]32C)/C1=C(\CCC=C(C)C)C(=O)O [Fusidic acid] + Cc1onc(-c2ccccc2)c1C(=O)N[C@@H]1C(=O)N2[C@@H]1SC(C)(C)[C@@H]2C(=O)O [Oxacillin] | 0.0784 | 0.0607 | 0.044 | 0.152 | – | – | – | –
CC(=O)O[C@H]1C[C@@]2(C)[C@@H](C[C@@H](O)[C@H]3[C@@]4(C)CC[C@@H](O)[C@@H](C)[C@@H]4CC[C@@]32C)/C1=C(\CCC=C(C)C)C(=O)O [Fusidic acid] + Clc1ccc(COC(Cn2ccnc2)c2ccc(Cl)cc2Cl)c(Cl)c1 [Miconazole] | -0.0399 | -0.0605 | 0.0483 | -0.117 | – | – | – | –
CC(=O)O[C@H]1C[C@@]2(C)[C@@H](C[C@@H](O)[C@H]3[C@@]4(C)CC[C@@H](O)[C@@H](C)[C@@H]4CC[C@@]32C)/C1=C(\CCC=C(C)C)C(=O)O [Fusidic acid] + Cn1nnc(-c2ccc(-c3ccc(N4C[C@H](CO)OC4=O)cc3F)cn2)n1 [Tedizolid] | -0.048 | -0.131 | -0.0507 | -0.0933 | – | – | – | –
CC(=O)O[C@H]1C[C@@]2(C)[C@@H](C[C@@H](O)[C@H]3[C@@]4(C)CC[C@@H](O)[C@@H](C)[C@@H]4CC[C@@]32C)/C1=C(\CCC=C(C)C)C(=O)O [Fusidic acid] + O=C1CN(/N=C/c2ccc([N+](=O)[O-])o2)C(=O)N1 [Nitrofurantoin] | -0.0292 | -0.0345 | -0.0226 | -0.186 | – | – | – | –
CC(=O)O[C@H]1C[C@@]2(C)[C@@H](C[C@@H](O)[C@H]3[C@@]4(C)CC[C@@H](O)[C@@H](C)[C@@H]4CC[C@@]32C)/C1=C(\CCC=C(C)C)C(=O)O [Fusidic acid] + Oc1cc(Cl)ccc1Oc1ccc(Cl)cc1Cl [Triclosan] | 0.0305 | 0.0422 | -0.0259 | 0.124 | – | – | – | –
C[C@@H](O)[C@H]1C(=O)N2C(C(=O)O)=C(SCCNC=N)C[C@H]12 [Imipenem] + CC1(C)S[C@@H]2[C@H](NC(=O)Cc3ccccc3)C(=O)N2[C@H]1C(=O)O [PenicillinG] | -0.198 | 0.0587 | -0.0614 | -0.0999 | – | – | – | –
C[C@@H](O)[C@H]1C(=O)N2C(C(=O)O)=C(SCCNC=N)C[C@H]12 [Imipenem] + CCCCCCCCCC(=O)N[C@@H]1[C@H]([C@@H]([C@H](O[C@H]1OC2=C3C=C4C=C2OC5=C(C=C(C=C5)[C@H]([C@H]6C(=O)N[C@@H](C7=C(C(=CC(=C7)O)OC8[C@H]([C@H]([C@@H]([C@H](O8)CO)O)O)O)C9=C(C=CC(=C9)[C@H](C(=O)N6)NC(=O)[C@@H]4NC(=O)[C@@H]1C2=CC(=CC(=C2)OC2=C(C=CC(=C2)[C@H](C(=O)N[C@H](CC2=CC(=C(O3)C=C2)Cl)C(=O)N1)N)O)O)O)C(=O)O)O[C@H]1[C@@H]([C@H]([C@@H]([C@H](O1)CO)O)O)NC(=O)C)Cl)CO)O)O [Teicoplanin] | – | – | – | – | 0.0599 | -0.0771 | 0.0578 | -0.102
C[C@@H](O)[C@H]1C(=O)N2C(C(=O)O)=C(SCCNC=N)C[C@H]12 [Imipenem] + CC[C@H]1OC(=O)[C@H](C)C(=O)[C@H](C)[C@@H](O[C@@H]2O[C@H](C)C[C@H](N(C)C)[C@H]2O)[C@](C)(OC)C[C@@H](C)C(=O)[C@H](C)[C@H]2N(CCCCn3cnc(-c4cccnc4)c3)C(=O)O[C@]12C [Telithromycin] | -0.0123 | 0.0561 | -0.0311 | 0.0906 | – | – | – | –
C[C@@H](O)[C@H]1C(=O)N2C(C(=O)O)=C(SCCNC=N)C[C@H]12 [Imipenem] + CN[C@H](CC(C)C)C(=O)N[C@H]1C(=O)N[C@@H](CC(N)=O)C(=O)N[C@H]2C(=O)N[C@H]3C(=O)N[C@H](C(=O)N[C@H](C(=O)O)c4cc(O)cc(O)c4-c4cc3ccc4O)[C@H](O[C@H]3C[C@](C)(N)[C@@H](O)[C@H](C)O3)c3ccc(c(Cl)c3)Oc3cc2cc(c3O[C@@H]2O[C@H](CO)[C@@H](O)[C@H](O)[C@H]2O[C@H]2C[C@](C)(NCc3ccc(-c4ccc(Cl)cc4)cc3)[C@@H](O)[C@H](C)O2)Oc2ccc(cc2Cl)[C@H]1O [Oritavancin] | 0.0479 | 0.0293 | -0.0256 | -0.0529 | – | – | – | –
C[C@@H](O)[C@H]1C(=O)N2C(C(=O)O)=C(SCCNC=N)C[C@H]12 [Imipenem] + CO[C@@H]1[C@@H](OC(N)=O)[C@@H](O)[C@H](Oc2ccc3c(O)c(NC(=O)c4ccc(O)c(CC=C(C)C)c4)c(=O)oc3c2C)OC1(C)C [Novobiocin] | -0.0163 | -0.166 | 0.0228 | -0.107 | – | – | – | –
C[C@@H](O)[C@H]1C(=O)N2C(C(=O)O)=C(SCCNC=N)C[C@H]12 [Imipenem] + CO[C@@]12[C@H](COC(N)=O)C3=C(C(=O)C(C)=C(N)C3=O)N1C[C@@H]1N[C@@H]12 [MitomycinC] | 0.0577 | -0.0977 | -0.03 | -0.0563 | – | – | – | –
C[C@@H](O)[C@H]1C(=O)N2C(C(=O)O)=C(SCCNC=N)C[C@H]12 [Imipenem] + COc1cc(Cc2cnc(N)nc2N)cc(OC)c1OC [Trimethoprim] | -0.0308 | -0.127 | -0.0457 | 0.153 | – | – | – | –
C[C@@H](O)[C@H]1C(=O)N2C(C(=O)O)=C(SCCNC=N)C[C@H]12 [Imipenem] + Oc1cc(Cl)ccc1Oc1ccc(Cl)cc1Cl [Triclosan] | 0.0211 | -0.0589 | 0.0376 | 0.0753 | – | – | – | –
CCC[C@@H]1C[C@@H](C(=O)N[C@@H]([C@H]2O[C@H](SC)[C@H](O)[C@@H](O)[C@H]2O)[C@@H](C)O)N(C)C1 [Lincomycin] + CC1(C)S[C@@H]2[C@H](NC(=O)Cc3ccccc3)C(=O)N2[C@H]1C(=O)O [PenicillinG] | 0.0805 | 0.0736 | 0.0494 | 0.0998 | – | – | – | –
CCC[C@@H]1C[C@@H](C(=O)N[C@@H]([C@H]2O[C@H](SC)[C@H](O)[C@@H](O)[C@H]2O)[C@@H](C)O)N(C)C1 [Lincomycin] + CC[C@H]1OC(=O)[C@H](C)C(=O)[C@H](C)[C@@H](O[C@@H]2O[C@H](C)C[C@H](N(C)C)[C@H]2O)[C@](C)(OC)C[C@@H](C)C(=O)[C@H](C)[C@H]2N(CCCCn3cnc(-c4cccnc4)c3)C(=O)O[C@]12C [Telithromycin] | -0.0488 | 0.091 | -0.053 | -0.171 | – | – | – | –
CCC[C@@H]1C[C@@H](C(=O)N[C@@H]([C@H]2O[C@H](SC)[C@H](O)[C@@H](O)[C@H]2O)[C@@H](C)O)N(C)C1 [Lincomycin] + CN[C@H](CC(C)C)C(=O)N[C@H]1C(=O)N[C@@H](CC(N)=O)C(=O)N[C@H]2C(=O)N[C@H]3C(=O)N[C@H](C(=O)N[C@H](C(=O)O)c4cc(O)cc(O)c4-c4cc3ccc4O)[C@H](O[C@H]3C[C@](C)(N)[C@@H](O)[C@H](C)O3)c3ccc(c(Cl)c3)Oc3cc2cc(c3O[C@@H]2O[C@H](CO)[C@@H](O)[C@H](O)[C@H]2O[C@H]2C[C@](C)(NCc3ccc(-c4ccc(Cl)cc4)cc3)[C@@H](O)[C@H](C)O2)Oc2ccc(cc2Cl)[C@H]1O [Oritavancin] | -0.0583 | 0.0264 | -0.0375 | 0.0612 | – | – | – | –
